Results published in the kinase profiling compilation of Christmann-Franck et al. (2016).

Assays:
Test in all cases: split-luciferase competition binding
PRKCE (human) = PRKCE (human) (UniProt Q02156); conditions: compound 10.0 µM
RPS6KA3 KD1 (human) = RPS6KA3 KD1 (human) (UniProt P51812); conditions: compound 10.0 µM
SGK3 (human) = SGK3 (human) (UniProt Q96BR1); conditions: compound 10.0 µM
PRKCQ (human) = PRKCQ (human) (UniProt Q04759); conditions: compound 10.0 µM
AURKA (human) = AURKA (human) (UniProt O14965); conditions: compound 10.0 µM
Chain of AURKA (human) (O14965 whole entry, looked up): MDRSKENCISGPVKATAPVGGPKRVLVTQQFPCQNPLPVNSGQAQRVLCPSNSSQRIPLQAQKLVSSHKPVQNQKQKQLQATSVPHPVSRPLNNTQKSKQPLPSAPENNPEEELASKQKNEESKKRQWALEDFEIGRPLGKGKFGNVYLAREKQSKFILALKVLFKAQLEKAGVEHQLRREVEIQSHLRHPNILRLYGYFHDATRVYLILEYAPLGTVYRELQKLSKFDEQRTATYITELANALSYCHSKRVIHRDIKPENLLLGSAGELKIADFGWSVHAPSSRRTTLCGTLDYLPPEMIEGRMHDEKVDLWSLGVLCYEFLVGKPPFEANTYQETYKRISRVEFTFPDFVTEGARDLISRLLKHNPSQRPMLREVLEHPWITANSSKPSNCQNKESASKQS

AURKC (human) = AURKC (human) (UniProt Q9UQB9); conditions: compound 10.0 µM
PRKCH (human) = PRKCH (human) (UniProt P24723); conditions: compound 10.0 µM
RPS6KA1 KD1 (human) = RPS6KA1 KD1 (human) (UniProt Q15418); conditions: compound 10.0 µM
PRKCG (human) = PRKCG (human) (UniProt P05129); conditions: compound 10.0 µM
PRKX (human) = PRKX (human) (UniProt P51817); conditions: compound 10.0 µM
Chain of PRKX (human) (P51817 whole entry, looked up): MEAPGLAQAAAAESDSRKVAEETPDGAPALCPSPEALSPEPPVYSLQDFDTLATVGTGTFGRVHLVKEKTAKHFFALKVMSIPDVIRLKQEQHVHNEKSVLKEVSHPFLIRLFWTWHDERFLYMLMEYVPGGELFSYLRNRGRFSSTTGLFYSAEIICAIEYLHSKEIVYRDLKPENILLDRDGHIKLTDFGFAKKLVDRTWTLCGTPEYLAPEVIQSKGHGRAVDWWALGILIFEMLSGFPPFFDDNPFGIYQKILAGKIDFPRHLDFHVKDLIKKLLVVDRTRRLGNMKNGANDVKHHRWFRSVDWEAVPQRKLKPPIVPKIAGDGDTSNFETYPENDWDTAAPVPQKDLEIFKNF

RPS6KA4 KD1 (human) = RPS6KA4 KD1 (human) (UniProt O75676); conditions: compound 10.0 µM
STK32B (human) = STK32B (human) (UniProt Q9NY57); conditions: compound 10.0 µM
Chain of STK32B (human) (Q9NY57 whole entry, looked up): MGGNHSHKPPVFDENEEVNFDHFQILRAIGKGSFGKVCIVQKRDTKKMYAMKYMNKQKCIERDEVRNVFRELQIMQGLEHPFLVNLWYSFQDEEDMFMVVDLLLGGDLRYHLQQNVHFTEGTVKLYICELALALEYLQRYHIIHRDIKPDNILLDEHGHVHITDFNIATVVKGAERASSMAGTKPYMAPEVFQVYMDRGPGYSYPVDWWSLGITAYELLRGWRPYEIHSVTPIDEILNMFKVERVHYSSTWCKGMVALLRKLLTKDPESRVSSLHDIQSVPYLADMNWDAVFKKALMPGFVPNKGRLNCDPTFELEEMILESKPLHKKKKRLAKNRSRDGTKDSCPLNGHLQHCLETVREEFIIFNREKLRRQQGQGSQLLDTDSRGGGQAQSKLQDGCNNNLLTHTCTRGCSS

RPS6KA6 KD1 (human) = RPS6KA6 KD1 (human) (UniProt Q9UK32); conditions: compound 10.0 µM
Chain of RPS6KA6 KD1 (human) (Q9UK32 whole entry, looked up): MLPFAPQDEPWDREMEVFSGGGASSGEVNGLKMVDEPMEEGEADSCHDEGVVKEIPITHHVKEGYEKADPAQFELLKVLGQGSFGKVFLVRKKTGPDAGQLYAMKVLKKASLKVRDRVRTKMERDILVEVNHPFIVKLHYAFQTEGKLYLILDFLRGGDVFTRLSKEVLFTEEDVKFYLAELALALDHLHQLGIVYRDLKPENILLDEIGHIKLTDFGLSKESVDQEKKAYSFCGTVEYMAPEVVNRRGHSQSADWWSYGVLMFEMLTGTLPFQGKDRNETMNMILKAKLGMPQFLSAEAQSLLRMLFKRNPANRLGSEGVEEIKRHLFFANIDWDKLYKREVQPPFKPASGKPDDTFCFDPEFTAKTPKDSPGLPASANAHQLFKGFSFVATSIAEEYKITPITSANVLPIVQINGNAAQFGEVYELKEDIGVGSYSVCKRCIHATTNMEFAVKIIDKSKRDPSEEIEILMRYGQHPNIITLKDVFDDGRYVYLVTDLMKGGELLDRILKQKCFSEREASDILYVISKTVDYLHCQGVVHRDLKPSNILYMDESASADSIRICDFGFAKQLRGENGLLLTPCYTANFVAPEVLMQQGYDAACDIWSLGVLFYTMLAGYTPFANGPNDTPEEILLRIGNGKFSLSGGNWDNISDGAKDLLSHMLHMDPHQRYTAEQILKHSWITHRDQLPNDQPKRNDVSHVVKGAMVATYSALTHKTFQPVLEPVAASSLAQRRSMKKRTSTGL

AKT1 (human) = AKT1 (human) (UniProt P31749); conditions: compound 10.0 µM
Chain of AKT1 (human) (P31749 whole entry, looked up): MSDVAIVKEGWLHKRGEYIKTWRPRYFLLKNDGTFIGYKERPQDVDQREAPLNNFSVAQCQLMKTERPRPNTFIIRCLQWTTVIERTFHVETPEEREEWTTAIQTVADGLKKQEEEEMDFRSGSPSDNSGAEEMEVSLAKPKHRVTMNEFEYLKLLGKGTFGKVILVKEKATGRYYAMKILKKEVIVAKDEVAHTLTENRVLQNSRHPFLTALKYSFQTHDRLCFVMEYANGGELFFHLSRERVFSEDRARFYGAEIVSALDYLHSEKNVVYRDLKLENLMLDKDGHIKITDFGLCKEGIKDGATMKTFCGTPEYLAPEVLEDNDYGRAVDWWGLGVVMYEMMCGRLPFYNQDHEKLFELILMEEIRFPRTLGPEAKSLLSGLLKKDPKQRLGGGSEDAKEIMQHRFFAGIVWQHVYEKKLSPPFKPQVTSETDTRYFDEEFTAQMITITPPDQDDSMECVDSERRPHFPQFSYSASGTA

AKT3 (human) = AKT3 (human) (UniProt Q9Y243); conditions: compound 10.0 µM
Chain of AKT3 (human) (Q9Y243 whole entry, looked up): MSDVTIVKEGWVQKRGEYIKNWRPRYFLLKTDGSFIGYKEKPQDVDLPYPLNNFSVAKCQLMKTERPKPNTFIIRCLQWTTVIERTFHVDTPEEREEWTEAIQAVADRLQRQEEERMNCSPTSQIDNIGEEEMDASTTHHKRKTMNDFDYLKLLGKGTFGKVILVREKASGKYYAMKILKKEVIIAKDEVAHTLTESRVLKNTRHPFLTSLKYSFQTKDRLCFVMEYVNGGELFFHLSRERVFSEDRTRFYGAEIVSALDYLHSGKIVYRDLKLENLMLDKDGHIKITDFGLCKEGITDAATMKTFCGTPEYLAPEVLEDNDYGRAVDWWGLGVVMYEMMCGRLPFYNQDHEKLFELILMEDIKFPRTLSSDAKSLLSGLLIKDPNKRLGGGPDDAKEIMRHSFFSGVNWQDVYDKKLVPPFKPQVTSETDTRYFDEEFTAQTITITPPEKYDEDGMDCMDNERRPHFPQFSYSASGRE

DMPK (human) = DMPK (human) (UniProt Q09013); conditions: compound 10.0 µM
Chain of DMPK (human) (Q09013 whole entry, looked up): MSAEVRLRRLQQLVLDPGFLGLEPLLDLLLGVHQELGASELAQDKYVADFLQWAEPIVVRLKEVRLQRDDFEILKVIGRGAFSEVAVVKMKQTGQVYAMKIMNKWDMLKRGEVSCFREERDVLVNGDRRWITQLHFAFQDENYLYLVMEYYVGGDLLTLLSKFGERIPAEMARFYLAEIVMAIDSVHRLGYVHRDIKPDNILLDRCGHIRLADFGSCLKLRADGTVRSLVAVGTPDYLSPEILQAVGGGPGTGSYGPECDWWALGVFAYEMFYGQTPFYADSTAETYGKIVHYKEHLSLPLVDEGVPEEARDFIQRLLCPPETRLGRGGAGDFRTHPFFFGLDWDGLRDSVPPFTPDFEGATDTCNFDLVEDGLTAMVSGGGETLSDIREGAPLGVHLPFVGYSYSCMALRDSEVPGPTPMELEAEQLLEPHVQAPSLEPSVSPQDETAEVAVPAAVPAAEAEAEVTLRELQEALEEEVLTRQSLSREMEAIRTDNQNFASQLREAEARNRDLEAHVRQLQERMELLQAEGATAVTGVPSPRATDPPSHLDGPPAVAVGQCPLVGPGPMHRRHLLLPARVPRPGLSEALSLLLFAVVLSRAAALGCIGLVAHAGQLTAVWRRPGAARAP

RPS6KA5 KD1 (human) = RPS6KA5 KD1 (human) (UniProt O75582); conditions: compound 10.0 µM
SGK2 (human) = SGK2 (human) (UniProt Q9HBY8); conditions: compound 10.0 µM
PKN1 (human) = PKN1 (human) (UniProt Q16512); conditions: compound 10.0 µM
RPS6KA2 KD1 (human) = RPS6KA2 KD1 (human) (UniProt Q15349); conditions: compound 10.0 µM
Chain of RPS6KA2 KD1 (human) (Q15349 whole entry, looked up): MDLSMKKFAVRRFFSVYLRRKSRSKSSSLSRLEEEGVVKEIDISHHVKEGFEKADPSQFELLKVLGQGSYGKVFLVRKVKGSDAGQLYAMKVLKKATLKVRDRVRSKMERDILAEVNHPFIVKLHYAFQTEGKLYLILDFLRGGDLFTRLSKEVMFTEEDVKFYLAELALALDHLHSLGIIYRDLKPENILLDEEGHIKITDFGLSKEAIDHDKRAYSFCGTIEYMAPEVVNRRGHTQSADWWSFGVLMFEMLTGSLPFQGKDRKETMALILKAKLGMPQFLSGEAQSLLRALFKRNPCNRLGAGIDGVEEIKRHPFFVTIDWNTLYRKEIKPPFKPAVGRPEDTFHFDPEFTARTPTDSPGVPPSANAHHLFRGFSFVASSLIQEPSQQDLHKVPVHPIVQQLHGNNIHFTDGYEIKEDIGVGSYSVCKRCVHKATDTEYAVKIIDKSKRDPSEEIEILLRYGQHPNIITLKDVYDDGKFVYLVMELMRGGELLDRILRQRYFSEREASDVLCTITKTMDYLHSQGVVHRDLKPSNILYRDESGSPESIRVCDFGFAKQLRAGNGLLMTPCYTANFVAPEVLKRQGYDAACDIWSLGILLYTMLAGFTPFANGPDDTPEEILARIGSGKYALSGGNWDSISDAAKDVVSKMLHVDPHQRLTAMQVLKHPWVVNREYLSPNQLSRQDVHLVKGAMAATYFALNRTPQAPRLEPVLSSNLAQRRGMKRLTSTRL

PDPK1 (human) = PDPK1 (human) (UniProt O15530); conditions: compound 10.0 µM
PRKCI (human) = PRKCI (human) (UniProt P41743); conditions: compound 10.0 µM
PRKCD (human) = PRKCD (human) (UniProt Q05655); conditions: compound 10.0 µM
PRKACA (mouse) = conditions: compound 10.0 µM; accession and sequence are those of the human protein
AKT2 (human) = AKT2 (human) (UniProt P31751); conditions: compound 10.0 µM
Chain of AKT2 (human) (P31751 whole entry, looked up): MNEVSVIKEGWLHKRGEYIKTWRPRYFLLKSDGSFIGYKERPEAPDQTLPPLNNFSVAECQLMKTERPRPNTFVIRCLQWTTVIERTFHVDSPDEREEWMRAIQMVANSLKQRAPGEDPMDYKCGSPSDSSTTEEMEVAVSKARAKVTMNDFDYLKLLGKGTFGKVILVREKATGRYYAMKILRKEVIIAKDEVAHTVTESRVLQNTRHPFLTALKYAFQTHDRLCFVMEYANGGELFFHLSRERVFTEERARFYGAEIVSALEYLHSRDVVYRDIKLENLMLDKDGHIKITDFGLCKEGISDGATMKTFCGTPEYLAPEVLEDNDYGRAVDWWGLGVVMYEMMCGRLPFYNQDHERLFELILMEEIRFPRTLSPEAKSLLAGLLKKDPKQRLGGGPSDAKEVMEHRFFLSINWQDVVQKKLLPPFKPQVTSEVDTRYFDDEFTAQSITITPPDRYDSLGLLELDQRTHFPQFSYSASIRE

AURKB (human) = AURKB (human) (UniProt Q96GD4); conditions: compound 10.0 µM
PRKACB (human) = PRKACB (human) (UniProt P22694); conditions: compound 10.0 µM

Row | SMILES | inhibition (PRKCE (human)) [%] | inhibition (RPS6KA3 KD1 (human)) [%] | inhibition (SGK3 (human)) [%] | inhibition (PRKCQ (human)) [%] | inhibition (AURKA (human)) [%] | inhibition (AURKC (human)) [%] | inhibition (PRKCH (human)) [%] | inhibition (RPS6KA1 KD1 (human)) [%] | inhibition (PRKCG (human)) [%] | inhibition (PRKX (human)) [%] | inhibition (RPS6KA4 KD1 (human)) [%] | inhibition (STK32B (human)) [%] | inhibition (RPS6KA6 KD1 (human)) [%] | inhibition (AKT1 (human)) [%] | inhibition (AKT3 (human)) [%] | inhibition (DMPK (human)) [%] | inhibition (RPS6KA5 KD1 (human)) [%] | inhibition (SGK2 (human)) [%] | inhibition (PKN1 (human)) [%] | inhibition (RPS6KA2 KD1 (human)) [%] | further results
1 | CC(=O)c1c(O)c(C)c(O)c(Cc2c(O)c3c(c(C(=O)/C=C/c4ccccc4)c2O)OC(C)(C)C=C3)c1O | 14 | 4 | 0 | 9 | 5 | 8 | 0 | 0 | 26 | 16 | 0 | 23 | 13 | 24 | 0 | 23 | 0 | 20 | 0 | 9 | inhibition (PDPK1 (human)): 0%; inhibition (PRKCI (human)): 0%; inhibition (PRKCD (human)): 6%; inhibition (PRKACA (mouse)): 16%; inhibition (AKT2 (human)): 0%; inhibition (AURKB (human)): 10%; inhibition (PRKACB (human)): 22%
2 | CC(C)N(CCC(=O)c1ccc2ccccc2c1)Cc1ccccc1 | 0 | 0 | 0 | 0 | 0 | 0 | 0 | 0 | 0 | 0 | 0 | 0 | 0 | 0 | 0 | 0 | 2 | 0 | 0 | 0 | inhibition (PDPK1 (human)): 1%; inhibition (PRKCI (human)): 0%; inhibition (PRKCD (human)): 0%; inhibition (PRKACA (mouse)): 1%; inhibition (AKT2 (human)): 0%; inhibition (AURKB (human)): 0%; inhibition (PRKACB (human)): 0%
3 | c1ccc(-c2n[nH]cc2-c2ccnc3ccccc23)nc1 | 5 | 0 | 0 | 1 | 0 | 6 | 0 | 0 | 4 | 5 | 0 | 8 | 0 | 0 | 0 | 3 | 0 | 0 | 7 | 0 | inhibition (PDPK1 (human)): 0%; inhibition (PRKCI (human)): 0%; inhibition (PRKCD (human)): 0%; inhibition (PRKACA (mouse)): 1%; inhibition (AKT2 (human)): 0%; inhibition (AURKB (human)): 25%; inhibition (PRKACB (human)): 0%
4 | O=C(NC(NC(=S)Nc1ccc(F)c([N+](=O)[O-])c1)C(Cl)(Cl)Cl)C(c1ccccc1)c1ccccc1 (stereo unspecified) | 16 | 0 | 0 | 0 | 0 | 3 | 7 | 2 | 15 | 4 | 0 | 8 | 4 | 5 | 0 | 0 | 2 | 3 | 0 | 2 | inhibition (PDPK1 (human)): 0%; inhibition (PRKCI (human)): 0%; inhibition (PRKCD (human)): 0%; inhibition (PRKACA (mouse)): 0%; inhibition (AKT2 (human)): 0%; inhibition (AURKB (human)): 0%; inhibition (PRKACB (human)): 7%
5 | CC(C)[C@H](CO)Nc1nc(Nc2cc(N)cc(Cl)c2)c2ncn(C(C)C)c2n1 | 6 | 77 | 5 | 29 | 0 | 0 | 10 | 83 | 0 | 6 | 39 | 20 | 55 | 0 | 0 | 7 | 18 | 2 | 0 | 79 | inhibition (PDPK1 (human)): 0%; inhibition (PRKCI (human)): 0%; inhibition (PRKCD (human)): 6%; inhibition (PRKACA (mouse)): 13%; inhibition (AKT2 (human)): 0%; inhibition (AURKB (human)): 0%; inhibition (PRKACB (human)): 1%
6 | N#CC(=C(\N)Sc1ccccc1N)/C(C#N)=C(/N)Sc1ccccc1N | 0 | 0 | 0 | 0 | 0 | 0 | 0 | 0 | 0 | 0 | 0 | 0 | 0 | 0 | 0 | 0 | 0 | 0 | 0 | 0 | inhibition (PDPK1 (human)): 0%; inhibition (PRKCI (human)): 3%; inhibition (PRKCD (human)): 0%; inhibition (PRKACA (mouse)): 0%; inhibition (AKT2 (human)): 0%; inhibition (AURKB (human)): 0%; inhibition (PRKACB (human)): 0%
7 | Nc1ccc(-c2cccc3c(=O)cc(N4CCOCC4)oc23)cc1 | 4 | 0 | 0 | 0 | 2 | 14 | 1 | 0 | 0 | 2 | 3 | 0 | 0 | 2 | 0 | 4 | 2 | 0 | 0 | 0 | inhibition (PDPK1 (human)): 0%; inhibition (PRKCI (human)): 0%; inhibition (PRKCD (human)): 0%; inhibition (PRKACA (mouse)): 0%; inhibition (AKT2 (human)): 0%; inhibition (AURKB (human)): 7%; inhibition (PRKACB (human)): 0%
8 | O=c1cc(N2CCOCC2)oc2c1ccc1ccccc12 | 6 | 0 | 0 | 0 | 0 | 14 | 0 | 0 | 3 | 0 | 0 | 0 | 0 | 0 | 0 | 0 | 1 | 0 | 0 | 0 | inhibition (PDPK1 (human)): 0%; inhibition (PRKCI (human)): 0%; inhibition (PRKCD (human)): 0%; inhibition (PRKACA (mouse)): 0%; inhibition (AKT2 (human)): 0%; inhibition (AURKB (human)): 7%; inhibition (PRKACB (human)): 0%
